Reference: ChEMBL document CHEMBL5325446, “Design and synthesis of proteolysis-targeting chimeras (PROTACs) as degraders of glutathione peroxidase 4” (Bioorg Med Chem, 2023)
pIC50: −log10 of the molar value. The source made the active and inactive calls. No cut-off for these calls is given here.

Columns and labels:
[1] = molecular target: von Hippel-Lindau disease tumor suppressor/Phospholipid hydroperoxide glutathione peroxidase GPX4 (Homo sapiens) (UniProt P40337+P36969); assay: PROTAC activity at VHL/GPX4 in human MGC-803 cells assessed as induction of GPX4 degradation at 10 uM incubated for 24 hrs by Western blot analysis; assay type: cell-based
Sequence of von Hippel-Lindau disease tumor suppressor/Phospholipid hydroperoxide glutathione peroxidase GPX4 (Homo sapiens) (P36969 whole entry, looked up): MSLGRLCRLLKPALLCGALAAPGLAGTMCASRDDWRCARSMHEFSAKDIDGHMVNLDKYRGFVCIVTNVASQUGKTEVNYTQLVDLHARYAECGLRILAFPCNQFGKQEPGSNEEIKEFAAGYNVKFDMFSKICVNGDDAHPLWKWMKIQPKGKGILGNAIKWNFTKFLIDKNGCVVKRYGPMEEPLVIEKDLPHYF
Sequence of von Hippel-Lindau disease tumor suppressor/Phospholipid hydroperoxide glutathione peroxidase GPX4 (Homo sapiens) (P40337 whole entry, looked up): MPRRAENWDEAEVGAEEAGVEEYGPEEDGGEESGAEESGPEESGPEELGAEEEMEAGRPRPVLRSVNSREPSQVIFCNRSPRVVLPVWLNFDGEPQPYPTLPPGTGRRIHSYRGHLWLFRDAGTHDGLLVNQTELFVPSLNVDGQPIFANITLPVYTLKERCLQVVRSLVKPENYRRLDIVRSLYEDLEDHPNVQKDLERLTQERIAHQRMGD

[2] = tested on: HT-1080; assay: Cytotoxicity against human HT-1080 cells assessed as cell growth inhibition incubated for 48 hrs by CCK-8 assay; assay type: functional, cell-based; conditions: HT-1080, 48 h
[3] = molecular target: Protein cereblon/Phospholipid hydroperoxide glutathione peroxidase GPX4 (Homo sapiens) (UniProt Q96SW2+P36969); assay: PROTAC activity at CRBN/GPX4 in human MGC-803 cells assessed as induction of GPX4 degradation at 10 uM incubated for 24 hrs by Western blot analysis; assay type: cell-based
Sequence of Protein cereblon/Phospholipid hydroperoxide glutathione peroxidase GPX4 (Homo sapiens) (P36969 whole entry, looked up): as the sequence (P36969 whole entry, looked up) above
Sequence of Protein cereblon/Phospholipid hydroperoxide glutathione peroxidase GPX4 (Homo sapiens) (Q96SW2 whole entry, looked up): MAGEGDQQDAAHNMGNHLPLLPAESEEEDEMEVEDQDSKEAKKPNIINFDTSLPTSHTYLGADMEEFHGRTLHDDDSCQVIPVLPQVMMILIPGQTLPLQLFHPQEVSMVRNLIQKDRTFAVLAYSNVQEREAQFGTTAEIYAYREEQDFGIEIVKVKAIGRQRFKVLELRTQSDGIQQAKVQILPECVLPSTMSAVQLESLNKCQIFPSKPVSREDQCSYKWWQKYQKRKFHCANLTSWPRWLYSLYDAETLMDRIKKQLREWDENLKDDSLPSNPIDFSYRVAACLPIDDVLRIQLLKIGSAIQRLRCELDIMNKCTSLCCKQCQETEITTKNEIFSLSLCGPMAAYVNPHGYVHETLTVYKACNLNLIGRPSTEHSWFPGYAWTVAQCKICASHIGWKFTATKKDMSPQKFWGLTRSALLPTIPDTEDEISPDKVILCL

[4] = tested on: HT-1080; assay: Induction of ferroptosis in human HT-1080 cells assessed as […] accumulation at 10 uM incubated for 12 hrs by C11-BODIPY staining based flow cytometry analysis; assay type: functional, cell-based
[5] = tested on: HT-1080; assay: Induction of ferroptosis in human HT-1080 cells assessed as […] accumulation at 10 uM incubated for 24 hrs by C11-BODIPY staining based flow cytometry analysis; assay type: functional, cell-based

| SMILES | Activity [1] [%] | Activity [3] [%] | also measured |
| --- | --- | --- | --- |
| COc1ccc(N(C(=O)CCl)C(C(=O)NCCc2ccccc2)c2ccc(NC(=O)CCOCCNC(=O)CCOCCNc3cccc4c3C(=O)N(C3CCC(=O)NC3=O)C4=O)cc2)cc1Cl (centres undefined) | 39.2 |  | pIC50 [2]: 4.89 |
| O=C1CCC(N2C(=O)c3cccc(NCCOCCC(=O)N4CCN(CC(=O)Nc5ccc(N(C(=O)CCl)C(C(=O)NCCc6ccccc6)c6cccs6)cc5)CC4)c3C2=O)C(=O)N1 (centres undefined) |  | 33 | pIC50 [2]: 4.93; Activity [4]: Active; Activity [5]: Active |
| O=C(CCOCCNc1cccc2c1CN(C1CCC(=O)NC1=O)C2=O)NCCCC(=O)Nc1ccc(N(C(=O)CCl)C(C(=O)NCCc2ccccc2)c2cccs2)cc1 (centres undefined) |  | < 10 |  |
| O=C(CCOCCNc1cccc2c1C(=O)N(C1CCC(=O)NC1=O)C2=O)NCCOCCOCCC(=O)Nc1ccc(N(C(=O)CCl)C(C(=O)NCCc2ccccc2)c2cccs2)cc1 (centres undefined) |  | < 10 |  |
| O=C(CCOCCNc1cccc2c1C(=O)N(C1CCC(=O)NC1=O)C2=O)NCCC(=O)Nc1ccc(N(C(=O)CCl)C(C(=O)NCCc2ccccc2)c2cccs2)cc1 (centres undefined) |  | < 10 |  |
| O=C1CCC(N2C(=O)c3cccc(NCCOCCOCCOCCC(=O)Nc4ccc(N(C(=O)CCl)C(C(=O)NCCc5ccccc5)c5cccs5)cc4)c3C2=O)C(=O)N1 (centres undefined) |  | 19.4 |  |
| COc1ccc(N(C(=O)CCl)C(C(=O)NCCc2ccccc2)c2ccc(NC(=O)CCOCCOCCOCCNc3cccc4c3C(=O)N(C3CCC(=O)NC3=O)C4=O)cc2)cc1Cl (centres undefined) | < 10 |  |  |
| C=C(F)C(=O)N(c1ccc(NC(=O)CCOCCNC(=O)CCOCCNc2cccc3c2C(=O)N(C2CCC(=O)NC2=O)C3=O)cc1)C(C(=O)NCCc1ccccc1)c1cccs1 (centres undefined) | < 10 |  |  |
| O=C(CCOCCNc1cccc2c1CN(C1CCC(=O)NC1=O)C2=O)NCCC(=O)Nc1ccc(N(C(=O)CCl)C(C(=O)NCCc2ccccc2)c2cccs2)cc1 (centres undefined) |  | < 10 |  |
| O=C(Cn1cc(COc2cccc3c2C(=O)N(C2CCC(=O)NC2=O)C3=O)nn1)NCCCCC(=O)Nc1ccc(N(C(=O)CCl)C(C(=O)NCCc2ccccc2)c2cccs2)cc1 (centres undefined) | < 10 |  |  |
| Cc1ncsc1-c1ccc([C@@H](C)NC(=O)[C@@H]2C[C@@H](O)CN2C(=O)[C@@H](NC(=O)CCCCCC(=O)Nc2ccc(N(C(=O)CCl)C(C(=O)NCCc3ccccc3)c3cccs3)cc2)C(C)(C)C)cc1 (some centres undefined) | < 10 |  |  |
| COc1ccc(N(C(=O)CCl)C(C(=O)NCCc2ccccc2)c2ccc(NC(=O)CCOCCNc3cccc4c3C(=O)N(C3CCC(=O)NC3=O)C4=O)cc2)cc1Cl (centres undefined) | 28.7 |  |  |
| Cc1ncsc1-c1ccc([C@H](C)NC(=O)[C@@H]2C[C@@H](O)CN2C(=O)[C@@H](NC(=O)CCCCC(=O)Nc2ccc(N(C(=O)CCl)C(C(=O)NCCc3ccccc3)c3cccs3)cc2)C(C)(C)C)cc1 (some centres undefined) | < 10 |  |  |
| O=C(CCOCCNc1cccc2c1C(=O)N(C1CCC(=O)NC1=O)C2=O)NCCOCCC(=O)Nc1ccc(N(C(=O)CCl)C(C(=O)NCCc2ccccc2)c2cccs2)cc1 (centres undefined) |  | 30.1 | pIC50 [2]: 4.53 |
| O=C1CCC(N2C(=O)c3cccc(OCC(=O)Nc4ccc(N(C(=O)CCl)C(C(=O)NCCc5ccccc5)c5cccs5)cc4)c3C2=O)C(=O)N1 (centres undefined) |  | < 10 | pIC50 [2]: 4.92; Activity [4]: Active; Activity [5]: Active |
| O=C(CCOCCOCCNc1cccc2c1C(=O)N(C1CCC(=O)NC1=O)C2=O)NCCOCCC(=O)Nc1ccc(N(C(=O)CCl)C(C(=O)NCCc2ccccc2)c2cccs2)cc1 (centres undefined) |  | 16.4 |  |

| SMILES | Activity [1] [%] | Activity [3] [%] | also measured |
| --- | --- | --- | --- |
| O=C1CCC(N2C(=O)c3cccc(NCCOCCOCCOCCC(=O)N4CCN(CC(=O)Nc5ccc(N(C(=O)CCl)C(C(=O)NCCc6ccccc6)c6cccs6)cc5)CC4)c3C2=O)C(=O)N1 (centres undefined) |  | < 10 |  |
| Cc1ncsc1-c1ccc([C@H](C)NC(=O)[C@@H]2C[C@@H](O)CN2C(=O)[C@@H](NC(=O)CCCCCCC(=O)Nc2ccc(N(C(=O)CCl)C(C(=O)NCCc3ccccc3)c3cccs3)cc2)C(C)(C)C)cc1 (some centres undefined) | 45 |  | Activity [4]: inactive; Activity [5]: Active |
| Cc1ncsc1-c1ccc([C@H](C)NC(=O)[C@@H]2C[C@@H](O)CN2C(=O)[C@@H](NC(=O)CCCCCCCCC(=O)Nc2ccc(N(C(=O)CCl)C(C(=O)NCCc3ccccc3)c3cccs3)cc2)C(C)(C)C)cc1 (some centres undefined) | 28.6 |  |  |
| O=C1CCC(N2C(=O)c3cccc(OCC(=O)N4CCN(CC(=O)Nc5ccc(N(C(=O)CCl)C(C(=O)NCCc6ccccc6)c6cccs6)cc5)CC4)c3C2=O)C(=O)N1 (centres undefined) |  | < 10 |  |
| O=C(CCOCCNc1cccc2c1C(=O)N(C1CCC(=O)NC1=O)C2=O)NC(=O)Nc1ccc(N(C(=O)CCl)C(C(=O)NCCc2ccccc2)c2cccs2)cc1 (centres undefined) |  | < 10 |  |
| O=C(CCOCCNc1cccc2c1C(=O)N(C1CCC(=O)NC1=O)C2=O)NCCCCCCC(=O)Nc1ccc(N(C(=O)CCl)C(C(=O)NCCc2ccccc2)c2cccs2)cc1 (centres undefined) |  | < 10 |  |
| O=C1CCC(N2C(=O)c3cccc(NCCOCCOCCOCCOCCC(=O)N4CCN(CC(=O)Nc5ccc(N(C(=O)CCl)C(C(=O)NCCc6ccccc6)c6cccs6)cc5)CC4)c3C2=O)C(=O)N1 (centres undefined) |  | 19.9 |  |
| Cc1ncsc1-c1ccc([C@H](C)NC(=O)[C@@H]2C[C@@H](O)CN2C(=O)[C@@H](NC(=O)CCCCC(=O)N2CCN(CC(=O)Nc3ccc(N(C(=O)CCl)C(C(=O)NCCc4ccccc4)c4cccs4)cc3)CC2)C(C)(C)C)cc1 (some centres undefined) | < 10 |  |  |
| COc1ccc(N(C(=O)CCl)C(C(=O)NCCc2ccccc2)c2ccc(NC(=O)CCOCCOCCNc3cccc4c3C(=O)N(C3CCC(=O)NC3=O)C4=O)cc2)cc1Cl (centres undefined) | < 10 |  |  |
| O=C(CCOCCNc1cccc2c1C(=O)N(C1CCC(=O)NC1=O)C2=O)NCCCC(=O)Nc1ccc(N(C(=O)CCl)C(C(=O)NCCc2ccccc2)c2cccs2)cc1 (centres undefined) |  | 33.8 | pIC50 [2]: 4.42 |
| O=C1CCC(N2C(=O)c3cccc(NCCOCCOCCC(=O)N4CCN(CC(=O)Nc5ccc(N(C(=O)CCl)C(C(=O)NCCc6ccccc6)c6cccs6)cc5)CC4)c3C2=O)C(=O)N1 (centres undefined) |  | 18.2 |  |
| O=C(CCOCCNc1cccc2c1C(=O)N(C1CCC(=O)NC1=O)C2=O)NCCCCCC(=O)Nc1ccc(N(C(=O)CCl)C(C(=O)NCCc2ccccc2)c2cccs2)cc1 (centres undefined) |  | 18 | pIC50 [2]: 4.50 |
| Cc1ncsc1-c1ccc([C@H](C)NC(=O)[C@@H]2C[C@@H](O)CN2C(=O)[C@@H](NC(=O)CCCCCCCCCC(=O)Nc2ccc(N(C(=O)CCl)C(C(=O)NCCc3ccccc3)c3cccs3)cc2)C(C)(C)C)cc1 (some centres undefined) | < 10 |  |  |
| Cc1ncsc1-c1ccc([C@H](C)NC(=O)[C@@H]2C[C@@H](O)CN2C(=O)[C@@H](NC(=O)CCCCCCCC(=O)Nc2ccc(N(C(=O)CCl)C(C(=O)NCCc3ccccc3)c3cccs3)cc2)C(C)(C)C)cc1 (some centres undefined) | 21 |  |  |
| O=C1CCC(N2C(=O)c3cccc(NCCOCCOCCOCCOCCC(=O)Nc4ccc(N(C(=O)CCl)C(C(=O)NCCc5ccccc5)c5cccs5)cc4)c3C2=O)C(=O)N1 (centres undefined) |  | 14.5 |  |
| O=C(CCOCCNc1cccc2c1C(=O)N(C1CCC(=O)NC1=O)C2=O)NCCCCC(=O)Nc1ccc(N(C(=O)CCl)C(C(=O)NCCc2ccccc2)c2cccs2)cc1 (centres undefined) |  | < 10 |  |
